The structures appear in SMILES notation. A value given as a limit tells only on which side of the number the result lay.

A word on the IC50: it is the point on the concentration scale where inhibition reaches its midpoint.

The target in the experiment is T1, N-terminal His6-tagged recombinant full-length human Lck (Homo sapiens, UniProt P06239).
T1 construct: N-terminal His6-tagged recombinant full-length human Lck; His6 (N); purchased Millipore
T1 sequence (P06239 whole entry): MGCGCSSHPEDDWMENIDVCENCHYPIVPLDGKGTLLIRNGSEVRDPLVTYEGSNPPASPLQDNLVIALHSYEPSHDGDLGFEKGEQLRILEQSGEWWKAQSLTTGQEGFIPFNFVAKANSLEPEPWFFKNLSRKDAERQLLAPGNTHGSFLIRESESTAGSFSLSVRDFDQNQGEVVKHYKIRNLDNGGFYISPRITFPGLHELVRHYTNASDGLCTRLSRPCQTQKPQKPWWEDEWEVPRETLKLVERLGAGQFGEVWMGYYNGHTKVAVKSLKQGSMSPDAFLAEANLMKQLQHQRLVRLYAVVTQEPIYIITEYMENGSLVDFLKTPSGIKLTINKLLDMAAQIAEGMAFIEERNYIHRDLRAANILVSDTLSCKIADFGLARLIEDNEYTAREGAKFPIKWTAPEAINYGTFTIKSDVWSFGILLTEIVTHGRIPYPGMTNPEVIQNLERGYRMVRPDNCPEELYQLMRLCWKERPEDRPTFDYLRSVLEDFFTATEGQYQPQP
The experiment can be described thus: Lck IMAP assay. In kind it is biochemical. The conditions noted are these: ATP 6 μM (KM,ATP), enzyme pre-incubated with compounds for 60 minutes, values given as bins. From the text: Inhibition of kinase activity can be measured using the Immobilized Metal Assay for Phosphochemicals (IMAP) assay. IMAP is a homogeneous fluorescence polarization (FP) assay based on affinity capture of phosphorylated peptide substrates. IMAP uses fluorescein-labeled peptide substrates that, upon phosphorylation by a protein kinase, bind to so-called IMAP nanoparticles, which are derivatized with trivalent metal complexes. Binding causes a change in the rate of the molecular motion of the peptide, and results in an increase in the FP value observed for the fluorescein label attached to the substrate peptide (Gaudet et al. A homogeneous fluorescence polarization assay adaptable for a range of protein serine/threonine and tyrosine kinases. J. Biomol. Screen (2003) 8, 164-175).
Enzyme used was N-terminal His6-tagged recombinant full-length human Lck from Millipore. Phosphorylation substrate was a fluorescein-labeled peptide (5FAM-KVEKIGEGTYGVV—NH2) derived from p34cdc2 from Molecular Devices. Enzymes, substrate and ATP were diluted in Kinase Reaction buffer (10 mM Tris-HCl, 10 mM MgCl2, 0.01% Tween-20, 0.05% NaN3 pH 7.2, 1 mM DTT (dithiotreitol). The final volume at the kinase reaction step of the assay in the 384-well plate was 20 μl. Final amount of enzyme in the reaction was 0.1 U/ml. Enzyme was pre-incubated with compounds diluted in 1% DMSO (dimethylsulfoxide) for 60 minutes at room temperature in the dark. Subsequently, peptide substrate to a final concentration of 100 nM, and ATP to a final concentration of 6 μM were added and the mix was incubated for 120 minutes at room temperature in the dark. IMAP progressive binding buffer (75% 1× buffer A, 25% 1× buffer B with 1:600 Progressive Binding Reagent; Molecular Devices) was added, followed by an incubation step of 60 minutes at room temperature in the dark. Finally, the FP signal was read on an Envision Multilabel reader (Perkin Elmer).
All biochemical assays were run at KM,ATP of the enzyme using non-saturated conditions, meaning that during the incubation time it was assured that the signal increase was linear with time. For all biochemical assays a reference standard was used on each plate.
Ten point serial dilutions using a √10 dilution factor were used for dose response testing of compounds. Starting concentration was 10^-6M for Lck IMAP assays. Dose-response curves were run as two experiments on duplicate plates (N=1; n=2). All data was normalized to percentage effect based on maximum (Max) and minimum (Min) control values. On every 384 assay plate 16 wells were used as minimum wells (wells with ATP, 0% effect) and 16 wells were used as maximum wells (wells without ATP, 100% effect). 16 wells were used for measuring the background signal, obtained from a kinase reaction containing all constituents except the labeled peptide substrate. Percentage effect was plotted against log dilution concentration of compound to obtain sigmoid dose response curves. pIC50 values were calculated using ActivityBase.
Regarding `COc1cc(-c2nc(CO)n3ccnc(C)c23)ccc1NC(=O)c1cc2c(OC)cccc2n1C` [Example 14, N-(4-(3-(hydroxymethyl)-8-methylimidazo[1,5-a]pyrazin-1-yl)-2-methoxyphenyl)-4-methoxy-1-methyl-1H-indole-2-carboxamide], the 50% inhibitory concentration (IC50) was 10 to 100 nM.
The result for `CCC[C@H](C)OC(=O)Nc1ccc(-c2nc([C@H]3CC[C@H](CNC(=O)OC)CC3)n3ccnc(C)c23)cc1OC` [Example 70] reads not above 10 nM; that for `COc1cc(-c2nc(C3CN(C4CCOCC4)C3)n3ccnc(C)c23)ccc1NC(=O)c1cc2c(OC)cccc2n1C` [Example 16, 4-Methoxy-N-(2-methoxy-4-(8-methyl-3-(1-(tetrahydro-2H-pyran-4-yl)azetidin-3-yl)imidazo[1,5-a]pyrazin-1-yl)phenyl)-1-methyl-1H-indole-2-carboxamide], 10 to 100 nM; that for `COc1cc(-c2nc(N3CCN(C)CC3)n3ccnc(C)c23)ccc1NC(=O)c1cc2ccccc2n1C` [Example 23, N-(2-methoxy-4-(8-methyl-3-(4-methylpiperazin-1-yl)imidazo[1,5-a]pyrazin-1-yl)phenyl)-1-methyl-1H-indole-2-carboxamide], not above 10 nM.
The result for `CCC[C@H](C)OC(=O)Nc1ccc(-c2nc([C@H]3CC[C@H](NCCOC)CC3)n3ccnc(C)c23)cc1OC` [Example 11, (S)-Pentan-2-yl 2-methoxy-4-(3-((trans)-4-(2-methoxyethylamino)cyclohexyl)-8-methyl-imidazo[1,5-a]pyrazin-1-yl)phenylcarbamate] reads not above 10 nM; that for `CNC[C@H]1CC[C@H](c2nc(-c3ccc(NC(=O)c4cc5c(OC)cccc5n4C)c(OC)c3)c3c(C)nccn32)CC1` [Example 63, 4-Methoxy-N-(2-methoxy-4-(8-methyl-3-((trans)-4-((methylamino)methyl)cyclohexyl)imidazo[1,5-a]pyrazin-1-yl)phenyl)-1-methyl-1H-indole-2-carboxamide], not above 10 nM.
The result for `COc1cc(-c2nc([C@H]3CC[C@@H](N(C)C)CC3)n3ccnc(C)c23)ccc1NC(=O)c1cc2c(OC)cccc2n1C` [Example 26e, N-(4-(3-((cis)-4-(dimethylamino)cyclohexyl)-8-methylimidazo[1,5-a]pyrazin-1-yl)-2-methoxyphenyl)-4-methoxy-1-methyl-1H-indole-2-carboxamide] reads not above 10 nM; that for `COc1cc(-c2nc(C3CCNCC3)n3ccnc(C)c23)ccc1NC(=O)c1cc2c(OC)cccc2n1C` [Example 17, 4-Methoxy-N-(2-methoxy-4-(8-methyl-3-(piperidin-4-yl)imidazo[1,5-a]pyrazin-1-yl)phenyl)-1-methyl-1H-indole-2-carboxamide], not above 10 nM; that for `COc1cc(-c2nc(N3CCN(C(C)=O)CC3)n3ccnc(C)c23)ccc1NC(=O)c1cc2c(OC)cccc2n1C` [Example 33g, N-(4-(3-(4-acetylpiperazin-1-yl)-8-methylimidazo[1,5-a]pyrazin-1-yl)-2-methoxyphenyl)-4-methoxy-1-methyl-1H-indole-2-carboxamide], 10 to 100 nM.
In the case of `COc1cc(-c2nc(C3CCOCC3)n3ccnc(C)c23)c(F)cc1NC(=O)c1cc2c(OC)cccc2n1C` [Example 46, N-(5-fluoro-2-methoxy-4-(8-methyl-3-(tetrahydro-2H-pyran-4-yl)imidazo[1,5-a]pyrazin-1-yl)phenyl)-4-methoxy-1-methyl-1H-indole-2-carboxamide], the half-inhibitory concentration (IC50) is not above 10 nM.
As for `COc1cc(-c2nc([C@H]3CC[C@H](N4CCN(C(C)=O)CC4)CC3)n3ccnc(C)c23)ccc1NC(=O)c1cc2ccccc2n1C` [Example 33c, N-(4-(3-((trans)-4-(4-acetylpiperazin-1-yl)cyclohexyl)-8-methylimidazo[1,5-a]pyrazin-1-yl)-2-methoxyphenyl)-1-methyl-1H-indole-2-carboxamide], the concentration for half-maximal inhibition (IC50) was not above 10 nM.
The same measure for `CCC[C@H](C)OC(=O)Nc1ccc(-c2nc([C@H]3CC[C@H](CN(C)C)CC3)n3ccnc(C)c23)cc1OC` [Example 65, (S)-Pentan-2-yl 4-(3-((trans)-4-((dimethylamino)methyl)cyclohexyl)-8-methylimidazo[1,5-a]pyrazin-1-yl)-2-methoxyphenylcarbamate]: not above 10 nM.
The same measure for `CCC[C@H](C)OC(=O)Nc1ccc(-c2nc([C@@H]3CCN(C(=O)CN(C)C)C3)n3ccnc(C)c23)cc1OC` [Example 4, (S)-pentan-2-yl 4-(3-((R)-1-(2-(dimethylamino)acetyl)pyrrolidin-3-yl)-8-methylimidazo[1,5-a]pyrazin-1-yl)-2-methoxyphenylcarbamate]: not above 10 nM; for `CCC[C@H](C)OC(=O)Nc1ccc(-c2nc([C@H]3CC[C@H](N(C)CCOC)CC3)n3ccnc(C)c23)cc1OC` [Example 26a, (S)-pentan-2-yl 2-methoxy-4-(3-((trans)-4-((2-methoxyethyl)(methyl)amino)cyclohexyl)-8-methylimidazo[1,5-a]pyrazin-1-yl)phenylcarbamate]: not above 10 nM.
Regarding `COc1cc(-c2nc(C3CCN(C)C(=O)C3)n3ccnc(C)c23)ccc1NC(=O)c1cc2c(OC)cccc2n1C` (stereo not shown) [Example 38, 4-Methoxy-N-(2-methoxy-4-(8-methyl-3-(1-methyl-2-oxopiperidin-4-yl)imidazo[1,5-a]pyrazin-1-yl)phenyl)-1-methyl-1H-indole-2-carboxamide], the IC50 is not above 10 nM.
The result for `COc1ccc2c(C(=O)Nc3ccc(-c4nc([C@H]5CC[C@H](N6CCN(C)CC6)CC5)n5ccnc(C)c45)cc3OC)n[nH]c2c1` [Example 66, 6-Methoxy-N-(2-methoxy-4-(8-methyl-3-((trans)-4-(4-methylpiperazin-1-yl)cyclohexyl)imidazo[1,5-a]pyrazin-1-yl)phenyl)-1H-indazole-3-carboxamide] reads not above 10 nM; that for `COc1cccc2c1cc(C(=O)Nc1ccc(-c3nc([C@H]4CC[C@H](N5CCN(C)CC5)CC4)n4ccnc(C)c34)cc1O)n2C` [Example 62, N-(2-hydroxy-4-(8-methyl-3-((trans)-4-(4-methylpiperazin-1-yl)cyclohexyl)imidazo[1,5-a]pyrazin-1-yl)phenyl)-4-methoxy-1-methyl-1H-indole-2-carboxamide], not above 10 nM; that for `CCC[C@H](C)OC(=O)Nc1ccc(-c2nc(C3CCC(N4CCN(C)CC4)C3)n3ccnc(C)c23)cc1OC` (mixture of isomers) [Example 28, (S)-Pentan-2-yl 2-methoxy-4-(8-methyl-3-(3-(4-methylpiperazin-1-yl)cyclopentyl)imidazo[1,5-a]pyrazin-1-yl)phenylcarbamate], not above 10 nM.
The result for `COc1cc(-c2nc(C3CCN(C(N)=O)CC3)n3ccnc(C)c23)ccc1NC(=O)c1cc2c(OC)cccc2n1C` [Example 21, N-(4-(3-(1-carbamoylpiperidin-4-yl)-8-methylimidazo[1,5-a]pyrazin-1-yl)-2-methoxyphenyl)-4-methoxy-1-methyl-1H-indole-2-carboxamide] reads not above 10 nM; that for `COc1cc(-c2nc([C@H]3CC[C@H](N(C)C)CC3)n3ccnc(C)c23)ccc1NC(=O)c1cc2c(OC)cccc2n1C` [Example 26b, N-(4-(3-((trans)-4-(dimethylamino)cyclohexyl)-8-methylimidazo[1,5-a]pyrazin-1-yl)-2-methoxyphenyl)-4-methoxy-1-methyl-1H-indole-2-carboxamide], not above 10 nM; that for `COc1cc(-c2nc([C@H]3CC[C@H](NCC(F)F)CC3)n3ccnc(C)c23)ccc1NC(=O)c1cc2c(OC)cccc2n1C` [Example 40, N-(4-(3-((trans)-4-(2,2-Difluoroethylamino)cyclohexyl)-8-methylimidazo[1,5-a]pyrazin-1-yl)-2-methoxyphenyl)-4-methoxy-1-methyl-1H-indole-2-carboxamide], not above 10 nM.
The same measure for `COc1cc(-c2nc([C@H]3CC[C@H](OC(C)=O)CC3)n3ccnc(C)c23)ccc1NC(=O)c1cc2c(OC)cccc2n1C` [Example 5, (Trans)-4-(1-(3-methoxy-4-(4-methoxy-1-methyl-1H-indole-2-carboxamido)phenyl)-8-methylimidazo[1,5-a]pyrazin-3-yl)cyclohexyl acetate]: not above 10 nM.

Values taken from US8658794B2, “8-methyl-1-phenyl-imidazol[1,5-a]pyrazine compounds as Lck inhibitors and uses thereof” (Merck Sharp & Dohme B.V., priority 2010, dated 2014).
